Assay results as given in article PMC9667546, “Selective Inhibition of Bruton’s Tyrosine Kinase by a Designed Covalent Ligand Leads to Potent Therapeutic Efficacy in Blood Cancers Relative to Clinically Used Inhibitors” (ACS Pharmacology & Translational Science, 2022).

Biological target: T1, ITK (Homo sapiens, UniProt Q08881)
T1 construct: host or cells: HEK296T (so in the source)
T1 sequence (Q08881 1-620): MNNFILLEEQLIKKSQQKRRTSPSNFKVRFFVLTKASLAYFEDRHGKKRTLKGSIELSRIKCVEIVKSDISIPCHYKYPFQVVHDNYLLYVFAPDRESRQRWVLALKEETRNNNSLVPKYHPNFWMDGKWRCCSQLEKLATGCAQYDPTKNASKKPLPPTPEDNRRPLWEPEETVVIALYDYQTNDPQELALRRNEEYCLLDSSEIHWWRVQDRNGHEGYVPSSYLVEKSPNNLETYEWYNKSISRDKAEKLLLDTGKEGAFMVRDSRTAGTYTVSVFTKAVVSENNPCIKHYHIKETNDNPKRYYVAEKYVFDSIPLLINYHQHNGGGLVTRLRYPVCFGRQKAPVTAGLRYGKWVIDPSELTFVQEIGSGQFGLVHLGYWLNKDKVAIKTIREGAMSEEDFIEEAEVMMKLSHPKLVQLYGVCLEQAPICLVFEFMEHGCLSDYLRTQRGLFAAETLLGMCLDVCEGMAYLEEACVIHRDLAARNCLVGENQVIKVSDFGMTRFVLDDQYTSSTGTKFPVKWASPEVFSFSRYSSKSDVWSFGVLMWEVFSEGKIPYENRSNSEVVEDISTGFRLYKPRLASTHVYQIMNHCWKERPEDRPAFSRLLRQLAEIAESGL
Assay: NanoBRET in-cell target engagement, ITK
Assay type: binding
Procedure: In-cell target engagement was performed at Reaction Biology Corporation, using NanoBRET technology. Very briefly, HEK296T cells were transfected and treated in duplicate with JS25 for 1 h of incubation. The compound was diluted 10 times with 3-fold dilution, starting at 1 μM. Curve fits were performed only when the % NanoBret signal at the highest concentration of compounds was less than 55%. The IC50 values were determined using GraphPad Prism 8 ([…]).

Compound: C=CC(=O)Nc1cc(C)cc(-n2c(=O)ccc3cnc4ccc(-c5ccc(NS(C)(=O)=O)cc5)cc4c32)c1 [JS25]
- selectivity for BTK relative to ITK: 15 fold
- IC50 (HEK296T cells, 1 h incubation, average of duplicates): 440 nM
- selectivity (kinase/BTK), ITK (IC50 kinase/IC50 BTK): 15.4
